Data reported in patent publication US11510928B2, “Use of mirtazapine in the treatment of inflammatory disorders, autoimmune disease and PBC” (UTI Limited Partnership, priority 2017, dated 2022).

Assays:
[1] = test system: patients registered in THIN database; experiment: THIN cohort study 1995-2017: incidence of IMIDs according to mirtazapine exposure (Example 9); type: in vivo, human; conditions: THIN 1995-2017
From the text: Data source: THIN is a primary care patient oriented electronic medical record (EMR) database. It is one of the largest medical databases in the UK, consisting of prospectively gathered electronic medical records from over 11.1 million patients (˜3.7 million active patients), the equivalent to 75.6 million patient years, from more than 560 general practices in the UK, covering 6.2% of the UK population. All data elements are fully anonymised and validated by Cegedim Strategic Data (CSD)-Medical Research UK. […] Data from participant general practitioners across the UK are exported to THIN administrators and the database is updated every 3 months.
Study cohort: All adult patients (18 years) registered in THIN database starting from Jan. 1, 1995. Since mirtazapine was approved and available in the UK, Europe, and US markets by 1996, all patients who were prescribed mirtazapine with a prescription duration longer than 30 days, were defined as incident cases. We assessed the hazard of developing each studied IMID (CD, UC, psoriasis, MS or RA) separately. […] Similarly, in the same MS cohort, if a patient develops another IMID of interest prior to a diagnosis of MS, the index date of outcome will be the date of MS diagnosis. In all of our cohorts, we will follow patients from study start date until an incident diagnosis of IMID of interest, death, loss to follow-up or end of follow-up.
Inclusion and exclusion criteria: Patients should not have any interruption of registration or leave of practice. Cases with mirtazapine prescription duration of less than 30 days or unknown duration were excluded from the study.
Exposure variable of interest: Our primary exposure variable was mirtazapine. We used Read codes to identify mirtazapine usage, duration, dose, and start date. Our primary outcome was the incident diagnosis of one of the following conditions: Crohn's disease, multiple sclerosis, psoriasis, rheumatoid arthritis, and ulcerative colitis during study follow-up period (1995-2017).
a) Demographic covariates: Pre-specified covariates include age at diagnosis; sex; and cigarette smoking status is defined either (1) current smoker, coded for smoking within 12 months of the index date (condition diagnosis date); (2) ex-smoker, coded for smoking before but not within 12 months of the index date; or (3) never smoked, coded either as a lifetime non-smoker or not recorded as a smoker; alcohol consumption classified as current, former, never consumed alcohol, or unknown status at diagnosis; body mass index (weight in kg and height in m2); and socioeconomic status measured by the Mosaic scale which is a consumer classification scale that captures demographics, lifestyles, and behaviours (10 classes).
b) Depression: Read codes were used to identify patients with major depressive disorder (MDD). Read codes associated with only symptoms of depression, bipolar disorder, mania or hypomania were excluded. MDD was defined as (1) never diagnosed with MDD; (2) past MDD diagnosis prior to 90 days from index date; or (3) current MDD diagnosis if a diagnosis was made within 90 days before or after the index date.
c) Comorbidities: We used the Quality and Outcomes Framework (QOF) Read codes to assess for the following comorbidities: asthma, atrial fibrillation, cancer, chronic kidney disease (stages 3-5), chronic obstructive pulmonary disease, coronary heart disease, dementia, diabetes, epilepsy, heart failure, hypertension, and hypothyroid. […]

hepatic immune cells = experiment: Hepatic immune cell phenotyping by flow cytometry after mirtazapine treatment; type: in vivo, mouse
Procedure: Male 8-10 week old C57BL/6 mice (Jackson Labs, Bar Harbor, Me.) were used. All procedures were approved by the University of Calgary Animal Care Committee (protocol numbers AC14-0129 and AC14-0128) and were performed in accordance with the guidelines of the Canadian Council on Animal Care. To delineate the impact of mirtazapine treatment upon liver immune cell numbers and phenotype, and upon cytokine/chemokine networks within the liver, mice were treated with mirtazapine 1-20 mg/kg intraperitoneally^13-15. Mirtazapine was suspended in 1% aqueous solution of Tween 80, whereas the control group received 1% aqueous solution of Tween 80. […] The detailed experimental protocols, lists of antibodies and reagents used, flow cytometry gating, and immune cell phenotyping strategies, are described herein. […] Isolated hepatic leukocytes were subjected to direct immunofluorescence analyses using multicolor flow cytometry staining as previously described. Samples were acquired either using a FACScan flow cytometer (Becton Dickinson, Mountain View, Calif.) or AttuneTM Acoustic Focusing flow cytometer (Applied Biosytems, […], Burlington, ON). Data were analyzed using FlowJo® software (Treestar, Ashland, Oreg.). Gating proceeded as follows: gating of live cells and exclusion of duplet cells followed by gating on forward scatter (FSC) and side scatter (SSC) areas to identify regions appropriate to define live leukocytes. Within the leukocyte gate, the following cell subsets were identified: Regulatory T cells (CD4^+CD25^+Foxp3^+), monocytes (CD11b^+Ly6C^+), dendritic cells (CD11b^+CD11c^+), B Cells (CD3^-IgM^+), B1a B cells (IgM^+CD5^+CD^11b^+), B1b B cells (IgM^+CD5^-CD11b^+), and B2 B cells as (IgM^+CD5^-CD11b^-). Fluorescence-minus-one (FMO) controls were used for the accurate designation of cells with fluorescence above background levels. Appropriate isotype controls were used to determine the specificity of all antibodies used. Cell numbers were calculated based on the percentage of cells found in the gate of interest, and total cell numbers isolated from each liver.

[2] = 20 mg/kg ip, 3 hrs post-treatment

For `CN1CCN2c3ncccc3Cc3ccccc3C2C1` (stereo not shown) [Mirtazapine], the “Adjusted incidence rate ratio, Multiple sclerosis” value ([1]; N = 371, P = 0.006) was 0.80 (0.71-0.88), the “Adjusted incidence rate ratio, Crohn's Disease” value ([1]; N = 490, P = 0.89) was 1.00 (0.93-1.07) and the “Adjusted incidence rate ratio, Ulcerative Colitis” value ([1]; N = 1375, P = 0.002) was 0.84 (0.81-0.88). The “Adjusted incidence rate ratio, R. arthritis” value ([1]; N = 1792, P < 0.001) was 0.55 (0.51-0.60), the “Adjusted incidence rate ratio, Psoriasis” value ([1]; N = 5181, P = 0.002) was 0.93 (0.88-0.98) and the “Cellular expression levels of FOXP3 in hepatic Tregs (MFI)” value (hepatic immune cells; [2]) was “enhanced cellular expression levels of FOXP3”. For the same compound, the “Hepatic CD11b+CD11c+ dendritic cells as % of total CD11b+ cells” value (hepatic immune cells; [2]) was “relatively enriched”, the “Numbers of Tregs (CD4+CD25+FOXP3+) within the liver” value (hepatic immune cells; [2]) was “significantly increased numbers of Tregs” and the “Hepatic numbers of CD73 expressing T cells (CD3+CD73+)” value (hepatic immune cells; 5 hr (FIG. 11)) was “increases hepatic numbers of CD73 expressing T cells”. The “CXCR3+CD73+ B1a cells in the liver” value (hepatic immune cells; 5 hrs post-treatment) was “significantly increased recruitment”, the “Expression intensity of FOXP3 per cell (MFI)” value (hepatic immune cells; 5 hrs post-treatment) was “significantly increased” and the “Hepatic B1a cells” value (hepatic immune cells; 5 hrs post-treatment) was “significant increase”. The “Hepatic B1b cells” value (hepatic immune cells; 5 hrs post-treatment) was “remained unchanged”, the “Hepatic B2 cells” value (hepatic immune cells; 5 hrs post-treatment) was “decrease” and the “Increase in hepatic numbers of CD4+CD25+FOXP3+ T cells (Tregs)” value (hepatic immune cells; 5 hrs post-treatment) was ~2 fold. For the same compound, the “Reduction of hepatic LY6Chi monocyte population” value (hepatic immune cells; 5 hrs post-treatment) was ~2.5 fold, the “Total hepatic leukocyte numbers (CD45+)” value (hepatic immune cells; 5 hrs post-treatment) was “did not alter total overall hepatic leukocyte numbers” and the “Total numbers of hepatic monocytes (CD11b+LY6C+)” value (hepatic immune cells; 5 hrs post-treatment) was “significant reduction”. The “Hepatic numbers of repair monocytes (CD11b+Ly6Clow)” value (hepatic immune cells; 5 hrs post-treatment (FIG. 4H)) was “significantly reduces”, the “CXCL10 expression in hepatic monocytes and dendritic cells (MFI)” value (hepatic immune cells; flow cytometry, vs vehicle) was “increased CXCL10 expression” and the “Hepatic CD11b+Ly6Chi (inflammatory) monocytes” value (hepatic immune cells; pilot study, 20 mg/kg, 4 hrs) was “rapid striking reduction”. The “Hepatic CD11b+Ly6Clo (anti-inflammatory/repair) monocyte numbers” value (hepatic immune cells; pilot study, 20 mg/kg, 4 hrs) was “no change”.
